Reference: PubChem BioAssay (NCI)
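48-hour exposure; five concentrations; linearly interpolated endpoints. GI50 is the concentration that inhibits growth by half. TGI denotes the concentration required for complete inhibition of growth.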

What was measured:
Assay in all cases: growth of human tumour cells (NCI), 48 h
NCI-H522 lung = test system: NCI-H522 lung
SR leukemia = test system: SR leukemia
M14 melanoma = test system: M14 melanoma
CAKI-1 renal = test system: CAKI-1 renal
HOP-62 NSCLC = test system: HOP-62 NSCLC
EKVX NSCLC = test system: EKVX NSCLC
786-0 renal = test system: 786-0 renal
NCI-H226 lung = test system: NCI-H226 lung
IGROV1 ovarian = test system: IGROV1 ovarian
SK-OV-3 ovarian = test system: SK-OV-3 ovarian

Compound	GI50 (NCI-H522 lung) [µM]	TGI (NCI-H522 lung) [µM]	GI50 (SR leukemia) [µM]	TGI (SR leukemia) [µM]	GI50 (M14 melanoma) [µM]	TGI (M14 melanoma) [µM]	GI50 (CAKI-1 renal) [µM]	TGI (CAKI-1 renal) [µM]	GI50 (HOP-62 NSCLC) [µM]	TGI (HOP-62 NSCLC) [µM]	GI50 (EKVX NSCLC) [µM]	TGI (EKVX NSCLC) [µM]	GI50 (786-0 renal) [µM]	TGI (786-0 renal) [µM]	GI50 (NCI-H226 lung) [µM]	TGI (NCI-H226 lung) [µM]	GI50 (IGROV1 ovarian) [µM]	TGI (IGROV1 ovarian) [µM]	GI50 (SK-OV-3 ovarian) [µM]	TGI (SK-OV-3 ovarian) [µM]
CCN(CC)CCS(=O)(=O)CCNc1ccnc2cc(Cl)ccc12	0.758	2.11	0.812	> 46.3	2.53	9.33	0.782	6.08	4.99	> 100	4.31	> 46.1	2.84	19.9	4.61	> 100	2.26	16.7	6.58	70.2
CN(C)CCNC(=O)c1cccc2cc3ccc4ccccc4c3nc12		0.28		0.147		0.41		2.14		0.309		0.495		1.37		0.488		1.05		0.679
CC/C(=C(/c1ccc(/C=C/C(=O)O)cc1)c1ccc2[nH]ncc2c1)c1ccc(F)cc1Cl	9.42	28.2	4.03	29.4	7.84	27.1	11.9	25.6	9.98	26.5	13.2	32.3	7.83	21.1	19.3	47.6	15.8	40	16.7	30.8
Nc1ncnc2sc(Nc3ccccc3)nc12		> 100		> 100		> 100		> 100		> 100				> 100		> 100		> 100		> 100
C1=C(c2ccccc2)C(OC2Oc3ccccc3C=C2c2ccccc2)Oc2ccccc21 (stereo not drawn)		> 100		> 100		> 100		> 100		> 100		> 100		> 100		> 100		> 100		> 100
O=CC(O)C(O)C(OC1OC(CO)C(O)C(O)C1O)C(O)CO (stereo not drawn) (tested in a mixture with another compound)		> 100		33.1		> 100		> 100		> 100				> 100		> 100		71.9		> 100
O=C(O)C1=C(C(=O)O)Oc2ccccc2O1		> 100		> 100		> 100		> 100		> 100		> 100		> 100		> 100		> 100		> 100
COc1cc2c(cc1OC)C(SC)C(=O)N(Cc1cccc(OC)c1OC)CC2 (stereo not drawn)		3.07		24.1		26.5		> 88.5		> 45.8		> 100		> 100		26.8		> 90.8		> 100
COc1ccc(C(=O)/C=C/c2ccc(OCc3ccccc3)c(OC)c2)cc1OC	2.34	6.54	2.47	> 100	5.91	> 100	4.07	> 100	3.67	> 100			5.36	> 100	3.18	36.6	5.04	> 100	2.97	12.4
CC1(C)CC(O)CC(C)(C)N1.CC1(C)CC(O)CC(C)(C)N1.CC1(C)CC(O)CC(C)(C)N1.CC1(C)CC(O)CC(C)(C)N1.Cl.[Ti]	> 100	> 100	> 100	> 100	> 100	> 100	> 100	> 100	> 100	> 100			> 100	> 100	> 100	> 100	> 100	> 100	> 100	> 100
Cc1n(Cc2ccc3ccccc3n2)cc[n+]1Cc1ccc2ccccc2c1	0.312	1.58	0.565	3.24	1.13	10.7			1.79	7.36	2.17	21	4.36	18.2	0.965	8.36	1.12	4.76	1.16	5.03
Cc1ccc(-c2nc(C(Cl)Cl)nc3cc(C)nn23)cc1	2.14	> 100	0.342	> 100			1.59	5.42	1.31	8.58	2.19	6.45	> 100	> 100	> 100	> 100			2.28	8.62
COC(=O)[C@]1(C)CCCC2(C)C3=C(CCC21)CC1(CC3)SCCS1 (stereo partly drawn)		> 10		> 10		> 10		> 10		> 10		> 10		> 10				> 10		> 10
O=C(/C=C/c1cccc(Oc2ccc(Cl)cc2)c1)c1ccccc1	67.1	246	22.9	78.7	53.1	241			113	272	104	261	19.9	43.6	122	273	28.1	101	195	381
CC(=O)OC1COC(Oc2c(C)c3c4c(c2O)[C@@H](C)CC[C@@H]4[C@@H](C)C[C@H]3C=C(C)C)C(O)C1O (stereo partly drawn)	30.5	> 100	9.13	25.7	13	28.6	16	30.9	17.8	34.2			19.2	43.2	21.8	52.3	20.1	> 100	20.7	44
